pIC50: −log10 of the molar value. In brackets after ≈: the same amount, converted by molar mass.
Columns and labels:
[1] = tested on: Mycobacterium tuberculosis; assay: Antitubercular activity against Mycobacterium tuberculosis H37Rv ATCC 27294 assessed as bacterial growth inhibition; format: functional
[2] = tested on: Mycobacterium tuberculosis; assay: Antitubercular activity against Mycobacterium tuberculosis mc 2 6230 assessed as bacterial growth inhibition; format: functional
[3] = tested on: Mycobacterium tuberculosis; assay: Antitubercular activity against Mycobacterium tuberculosis H37Rv assessed as bacterial growth inhibition at 6.25 ug/ml measured after 5 to 8 days by radiometric analysis relative to control; format: functional; parameters: scale not given: the % may be the effect or the level left; conditions: dose 6.25 µg/ml; time 5-8 day
[4] = tested on: Mycobacterium tuberculosis; assay: Antitubercular activity against Mycobacterium tuberculosis H37Rv assessed as reduction in relative light units at 5 ug/ml incubated for 4 hrs followed by addition of D-luciferin by luciferase based luminometer analysis relative to control; format: functional; parameters: scale not given: the % may be the effect or the level left; conditions: dose 5 µg/ml
[5] = tested on: Mycobacterium tuberculosis; assay: Antitubercular activity against Mycobacterium tuberculosis H37Rv assessed as reduction in relative light units at 25 ug/ml incubated for 4 hrs followed by addition of D-luciferin by luciferase based luminometer analysis relative to control; format: functional; parameters: scale not given: the % may be the effect or the level left; conditions: dose 25 µg/ml
[6] = tested on: Mycobacterium tuberculosis; assay: Antitubercular activity against Mycobacterium tuberculosis H37Rv ATCC 27294 assessed as bacterial growth inhibition measured after 10 days by MABA method; format: functional; conditions: H37Rv ATCC 27294, 240 h, time 10 day
[7] = tested on: Mycobacterium tuberculosis; assay: Antitubercular activity against Mycobacterium tuberculosis H37Rv assessed as bacterial growth inhibition; format: functional
[8] = tested on: Mycobacterium tuberculosis; assay: Antitubercular activity against Mycobacterium tuberculosis H37Rv assessed as bacterial growth inhibition measured after 7 days by broth microdilution assay; format: functional; conditions: 168 h, time 7 day
[9] = tested on: Mycobacterium tuberculosis; assay: Antitubercular activity against Mycobacterium tuberculosis H37Rv ATCC 27294 assessed as bacterial growth inhibition by agar dilution method; format: functional
[10] = tested on: Mycobacterium tuberculosis; assay: Antitubercular activity against Mycobacterium tuberculosis H37Rv assessed as bacterial growth inhibition measured after […] by twofold agar dilution method; format: functional
[11] = tested on: Mycobacterium tuberculosis; assay: Antitubercular activity against Mycobacterium tuberculosis H37Rv ATCC 27294 assessed as bacterial growth inhibition measured after 9 days by twofold agar dilution method; format: functional; conditions: H37Rv ATCC 27294, 216 h, time 9 day
[12] = tested on: Mycobacterium tuberculosis; assay: Antitubercular activity against Mycobacterium tuberculosis H37Rv assessed as bacterial growth inhibition by micro broth dilution assay; format: functional
[13] = tested on: Mycobacterium tuberculosis; assay: Antitubercular activity against Mycobacterium tuberculosis H37Rv ATCC 27294 assessed as bacterial growth inhibition measured after 48 hrs by broth dilution method; format: functional
[14] = tested on: Mycobacterium tuberculosis; assay: Antitubercular activity against dormant stage of Mycobacterium tuberculosis H37Ra ATCC 25177 assessed as bacterial growth inhibition by XTT assay; format: functional
[15] = tested on: Mycobacterium tuberculosis; assay: Antitubercular activity against active stage of Mycobacterium tuberculosis H37Ra ATCC 25177 assessed as bacterial growth inhibition by XTT assay; format: functional
[16] = tested on: Mycobacterium tuberculosis; assay: Antitubercular activity against Mycobacterium tuberculosis mc 2 7000 assessed as bacterial growth inhibition; format: functional
[17] = tested on: Mycobacterium tuberculosis; assay: Antitubercular activity against Mycobacterium tuberculosis H37Rv assessed as bacterial growth inhibition measured after 7 days by MABA method; format: functional; conditions: 168 h, time 7 day
DNA gyrase subunit B = DNA gyrase subunit B (Mycobacterium smegmatis, UniProt P0C559); assay: Inhibition of Mycobacterium smegmatis GyrB incubated for 120 mins in presence of ATP by malachite green r staining based assay; parameters: species or system Mycolicibacterium smegmatis
DNA gyrase subunit B, sequence (P0C559 whole entry): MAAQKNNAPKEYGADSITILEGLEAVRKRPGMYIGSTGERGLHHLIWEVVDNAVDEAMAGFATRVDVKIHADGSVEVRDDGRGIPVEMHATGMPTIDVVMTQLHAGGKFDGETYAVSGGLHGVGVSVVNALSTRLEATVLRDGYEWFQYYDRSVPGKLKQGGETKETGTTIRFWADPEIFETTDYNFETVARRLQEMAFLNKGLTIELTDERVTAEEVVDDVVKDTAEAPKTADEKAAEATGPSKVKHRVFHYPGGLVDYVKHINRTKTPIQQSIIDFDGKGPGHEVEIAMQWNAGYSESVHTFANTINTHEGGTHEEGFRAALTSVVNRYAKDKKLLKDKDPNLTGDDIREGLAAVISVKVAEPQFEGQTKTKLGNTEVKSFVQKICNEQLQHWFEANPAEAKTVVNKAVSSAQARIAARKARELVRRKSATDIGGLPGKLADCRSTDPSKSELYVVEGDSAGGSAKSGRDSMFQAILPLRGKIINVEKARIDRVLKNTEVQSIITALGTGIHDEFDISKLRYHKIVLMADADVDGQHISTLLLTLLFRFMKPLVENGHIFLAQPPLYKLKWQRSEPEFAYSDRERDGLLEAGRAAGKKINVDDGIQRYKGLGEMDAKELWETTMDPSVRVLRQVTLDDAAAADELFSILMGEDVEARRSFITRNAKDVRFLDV

[18] = biological target: DNA gyrase subunit A/DNA gyrase subunit B (Mycobacterium tuberculosis (strain ATCC 25618 / H37Rv), UniProt P9WG45+P9WG47); assay: Inhibition of Mycobacterium tuberculosis DNA gyrase supercoiling activity; format: protein-complex assay
DNA gyrase subunit A/DNA gyrase subunit B, sequence (P9WG45 whole entry): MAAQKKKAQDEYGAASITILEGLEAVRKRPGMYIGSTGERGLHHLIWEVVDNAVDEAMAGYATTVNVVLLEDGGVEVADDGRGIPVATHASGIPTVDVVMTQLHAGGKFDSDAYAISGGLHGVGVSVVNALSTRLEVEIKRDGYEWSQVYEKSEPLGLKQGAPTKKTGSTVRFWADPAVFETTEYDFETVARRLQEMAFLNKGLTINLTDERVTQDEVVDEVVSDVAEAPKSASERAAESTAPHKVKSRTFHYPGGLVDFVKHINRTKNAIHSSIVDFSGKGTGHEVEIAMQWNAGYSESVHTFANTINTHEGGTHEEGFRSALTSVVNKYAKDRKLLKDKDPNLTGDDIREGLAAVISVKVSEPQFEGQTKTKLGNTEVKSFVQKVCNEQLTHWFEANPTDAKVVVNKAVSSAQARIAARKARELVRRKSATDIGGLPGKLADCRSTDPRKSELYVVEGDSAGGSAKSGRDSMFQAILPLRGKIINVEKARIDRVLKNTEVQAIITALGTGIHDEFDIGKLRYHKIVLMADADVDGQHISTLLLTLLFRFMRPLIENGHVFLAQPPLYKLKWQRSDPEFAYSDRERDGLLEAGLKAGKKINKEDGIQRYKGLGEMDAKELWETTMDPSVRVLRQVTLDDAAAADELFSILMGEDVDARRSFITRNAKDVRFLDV
DNA gyrase subunit A/DNA gyrase subunit B, sequence (P9WG47 whole entry): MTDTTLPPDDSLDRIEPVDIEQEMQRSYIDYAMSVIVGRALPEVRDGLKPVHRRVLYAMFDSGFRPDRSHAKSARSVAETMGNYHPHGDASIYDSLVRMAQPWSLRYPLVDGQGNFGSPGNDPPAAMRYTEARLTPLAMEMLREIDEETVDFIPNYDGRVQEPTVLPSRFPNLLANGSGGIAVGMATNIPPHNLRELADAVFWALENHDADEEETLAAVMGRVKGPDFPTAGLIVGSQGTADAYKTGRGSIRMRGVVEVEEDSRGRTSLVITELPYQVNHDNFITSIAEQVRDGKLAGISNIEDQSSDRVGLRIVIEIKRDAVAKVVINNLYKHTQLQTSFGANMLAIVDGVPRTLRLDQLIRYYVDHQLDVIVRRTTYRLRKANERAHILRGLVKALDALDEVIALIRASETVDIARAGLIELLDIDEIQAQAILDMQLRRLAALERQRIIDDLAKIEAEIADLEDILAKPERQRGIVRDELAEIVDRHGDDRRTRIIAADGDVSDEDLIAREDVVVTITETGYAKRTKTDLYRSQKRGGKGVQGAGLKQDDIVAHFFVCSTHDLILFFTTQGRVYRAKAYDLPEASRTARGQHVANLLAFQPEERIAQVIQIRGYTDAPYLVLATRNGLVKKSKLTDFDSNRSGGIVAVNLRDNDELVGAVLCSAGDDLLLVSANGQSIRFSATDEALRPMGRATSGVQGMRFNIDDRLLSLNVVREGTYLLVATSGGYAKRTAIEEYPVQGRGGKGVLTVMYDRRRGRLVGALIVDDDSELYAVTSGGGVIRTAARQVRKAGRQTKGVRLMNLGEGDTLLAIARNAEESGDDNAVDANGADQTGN

[19] = tested on: Mycobacterium tuberculosis; assay: Antitubercular activity against Mycobacterium tuberculosis H37Rv ATCC 25618 assessed as bacterial growth inhibition; format: functional
[20] = tested on: Mycobacterium tuberculosis; assay: Antitubercular activity against Mycobacterium tuberculosis spec. 210 assessed as bacterial growth inhibition; format: functional
[21] = tested on: Mycobacterium tuberculosis; assay: Antitubercular activity against Mycobacterium tuberculosis spec. 192 assessed as bacterial growth inhibition; format: functional

With `CCOC(=O)c1c(-n2cc(-c3ccc(C)cc3)nn2)c2ccccc2n(C)c1=O` the MIC [1] was 3.13 µg/mL (≈ 8.06 µM).
With `COc1ccc2c(c1)/C(=N/NC(=O)c1ccncc1)C(=O)N2Cc1cn(-c2ccccc2/C=N\NC(=O)c2ccncc2)nn1` the MIC99 [2] was 0.36 µg/mL (≈ 0.599 µM).
In the case of `Cc1nc2ccccc2n2c(-c3ccccc3)nnc12`, the Activity [3] was 2%.
`c1ccc(-c2cn(Cc3ccc4ccccc4n3)nn2)cc1` showed an Activity [4] of 58.2% and an Activity [5] of 80.79%.
With `CC1=CN([C@H]2C[C@H](O)[C@@H](Cn3nnc(C(=O)c4ccc(Br)cc4)c3-c3ccc([N+](=O)[O-])cc3)O2)C(=O)CC1=O` the MIC [6] was 2 µg/mL (≈ 3.35 µM).
For `CCCCCCc1cn(CCCC2C3CC4CC(C3)CC2C4)nn1.Cl` (configuration not stated), the MIC [7] was 6.2 µg/mL.
For `O=C1Nc2ccccc2/C1=N\OCc1cn(Cc2ccc(Cl)cc2)nn1`, the MIC [7] was 1.56 µg/mL (≈ 4.24 µM).
Compound `O=[N+]([O-])c1ncn(CCCCNS(=O)(=O)c2ccc(Cl)s2)n1` has an MIC [8] of 3.13 µM (≈ 1.15 µg/mL).
With `O=C(N/N=C\c1ccccc1-n1cc(CN2C(=O)/C(=N\NC(=O)c3ccncc3)c3cc(Cl)ccc32)nn1)c1ccncc1` the MIC99 [2] was 0.36 µg/mL (≈ 0.595 µM).
In the case of `CC1(C)OC2C3OC(C)(C)O[C@H]3C(Cn3cc(N4C(=O)CCC4=O)nn3)O[C@@H]2O1` (some centres not stated), the MIC [9] was 3.12 µg/mL (≈ 7.65 µM).
With `O=C1CC2CN(c3ccc(N4C[C@H](Cn5ccnn5)OC4=O)cc3F)CC2C1` (some centres not stated) the MIC [10] was 0.5 µg/mL (≈ 1.3 µM).
Work on `O=C(OCc1cn(CCCc2ccccc2)nn1)c1ccc(F)cc1` yielded an MIC [11] of 3.75 µg/mL (≈ 11 µM).
With `Brc1ccc(/C=C/c2nnc3c4ccccc4cnn23)cc1` the MIC [12] was 0.5 µg/mL.
Compound `Cc1nc2ccccc2n2c(-c3ccc(N(C)C)cc3)nnc12` has an Activity [3] of 2%.
`COc1cccc(-c2nnc3c(C)nc4ccccc4n23)c1` gave an Activity [3] of 2%.
For `C[C@]1(COc2ccc(-n3cc(COc4ccc(OC(F)(F)F)cc4)nn3)cc2)Cn2cc([N+](=O)[O-])nc2O1`, the MIC [13] was 0.23 µM (≈ 0.122 µg/mL).
`O=[N+]([O-])c1ccc(-c2n[nH]c(=S)[nH]2)cc1` was tested, and the MIC [14] was 0.64 µg/mL (≈ 2.88 µM) and the MIC [15] was 9.05 µg/mL (≈ 40.7 µM).
`CCCCCCCCCNC(=O)Cc1nnc2c3ccccc3cnn12` showed an MIC [12] of 0.5 µg/mL.
For `O=C(OCc1cn(-c2ccccc2)nn1)c1c[n+]([O-])c2ccc(Cl)cc2[n+]1[O-]`, the MIC [7] was 30.4 µg/mL (≈ 76.3 µM), the MIC [16] was 30.4 µg/mL and the MIC [2] was 30.4 µg/mL (≈ 76.3 µM).
`CC1=C(C(=O)O)N2C(=O)[C@@H](NC(=O)[C@H](N)c3ccccc3)[C@H]2SC1` [CEPHALEXIN ANHYDROUS] was tested, and the MIC [16] was 72 µM.
With `O=C1Nc2ccccc2/C1=N\OCc1cn(Cc2ccc(C(F)(F)F)cc2)nn1` the MIC [7] was 1.56 µg/mL (≈ 3.89 µM).
For `COc1ccc2cc(-n3cc(COc4nc(-c5ccccn5)sc4C(N)=O)nn3)c(=O)oc2c1`, the MIC [17] was 6.5 µM (≈ 3.1 µg/mL), the pIC50 (DNA gyrase subunit B) was 6.36 and the pIC50 [18] was 6.30.
For `CC1=CN([C@H]2C[C@H](O)[C@@H](Cn3nnc(C(=O)c4ccc(Cl)cc4)c3-c3ccc(C(C)(C)C)cc3)O2)C(=O)CC1=O`, the MIC [6] was 2 µg/mL (≈ 3.55 µM).
In the case of `COc1ccc(-n2cc(Cn3nc(-c4ccccc4)c4c3CCN(C(=O)Nc3ccccc3)C4)nn2)cc1`, the MIC [19] was 24.7 µM (≈ 12.5 µg/mL), the MIC [20] was 24.7 µM (≈ 12.5 µg/mL) and the MIC [21] was 24.7 µM (≈ 12.5 µg/mL).
